Key:
velvetleaf = assay: Test B pre/postemergence velvetleaf; type: in vivo, Abutilon theophrasti
Method in brief: (§1)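 Test chemicals in a non-phytotoxic solvent mixture with surfactant were sprayed preemergence onto planted seeds and postemergence onto plants 2 to 18 cm tall (1- to 4-leaf stage). After twelve to sixteen days in a greenhouse, injury was visually rated against untreated controls from 0 (no effect) to 10 (complete control).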

purple nutsedge = assay: Test B pre/postemergence purple nutsedge; type: in vivo, Cyperus rotundus
Method in brief: as §1

pigweed = assay: Test B pre/postemergence pigweed; type: in vivo, Amaranthus retroflexus
Method in brief: as §1

rice = assay: Test B flood test rice; type: in vivo, Oryza sativa
Method in brief: (§2)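 Plants were grown to the 2-leaf stage before treatment with test chemical, then held in a greenhouse for twelve to sixteen days. Injury was visually rated against untreated controls on a 0–10 scale, where 0 is no effect and 10 is complete control.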

morningglory = assay: Test B pre/postemergence morningglory; type: in vivo, Ipomoea hederacea
Method in brief: as §1

giant foxtail = assay: Test B pre/postemergence giant foxtail; type: in vivo, Setaria faberii
Method in brief: as §1

smallflower flatsedge = assay: Test B flood test smallflower flatsedge; type: in vivo, Cyperus difformis
Method in brief: as §2

blackgrass = assay: Test B pre/postemergence blackgrass; type: in vivo, Alopecurus myosuroides
Method in brief: as §1

soybean = assay: Test B pre/postemergence soybean; type: in vivo, Glycine max
Method in brief: as §1

rape = assay: Test B pre/postemergence rape; type: in vivo, Brassica napus
Method in brief: as §1

duck salad = assay: Test B flood test duck salad; type: in vivo, Heteranthera limosa
Method in brief: as §2

crabgrass = assay: Test B pre/postemergence crabgrass; type: in vivo, Digitaria sanguinalis
Method in brief: as §1

wheat = assay: Test B pre/postemergence wheat; type: in vivo, Triticum aestivum
Method in brief: as §1

corn = assay: Test B pre/postemergence corn; type: in vivo, Zea mays
Method in brief: as §1

cocklebur = assay: Test B pre/postemergence cocklebur; type: in vivo, Xanthium strumarium
Method in brief: as §1

sugar beet = assay: Test B pre/postemergence sugar beet; type: in vivo, Beta vulgaris
Method in brief: as §1

[1] = Preemergence, Rate 62 g/ha, scale of 0 to 10 where 0 is no effect and 10 is complete control
[2] = Preemergence, Rate 125 g/ha, 0 is no effect, 10 is complete control
[3] = Preemergence, Rate 250 g/ha, scale 0 to 10, 0 is no effect, 10 is complete control
[4] = Preemergence, Rate 500 g/ha, scale 0 to 10 (0 no effect, 10 complete control)
[5] = Rate 250 g/ha, Postemergence, scale 0 to 10, 0 is no effect, 10 is complete control
[6] = Rate 500 g/ha, Postemergence, scale 0 to 10
[7] = Postemergence, Rate 125 g/ha, scale of 0 to 10 where 0 is no effect and 10 is complete control
[8] = Rate 62 g/ha, Postemergence, scale of 0 to 10 where 0 is no effect and 10 is complete control
[9] = Postemergence (flood test species), Rate 125 g/ha, scale of 0 to 10 where 0 is no effect and 10 is complete control
[10] = Rate 62 g/ha, Postemergence section, flood test species, scale of 0 to 10 where 0 is no effect and 10 is complete control
[11] = Rate 250 g/ha, Postemergence (flood test), scale 0 to 10, 0 is no effect, 10 is complete control
[12] = Rate 500 g/ha, listed under Postemergence (flood test species), scale 0 to 10

Cc1nsc(C)c1-n1c(=O)on(C(=O)N(c2ccc(Cl)cc2)C(C)C)c1=O [Compound 159]
3: Plant response rating, Morningglory (morningglory; [5]) | Soybean plant response rating (soybean; [7]) | Plant response rating, Soybean (soybean; [5]) | Soybean plant response rating (soybean; [6])
4: Morningglory plant response rating (morningglory; [6])
0: Velvetleaf plant response rating (velvetleaf; [1]) | Velvetleaf plant response rating (0 to 10 scale) (velvetleaf; [2]) | Velvetleaf plant response rating (velvetleaf; [3]) | Velvetleaf plant response rating (velvetleaf; [4]) | Plant response rating, Velvetleaf (velvetleaf; [5]) | Velvetleaf plant response rating (velvetleaf; [6]) | Nutsedge plant response rating (purple nutsedge; [7]) | Nutsedge plant response rating (purple nutsedge; [1]) | Nutsedge plant response rating (0 to 10 scale) (purple nutsedge; [2]) | Nutsedge plant response rating (purple nutsedge; [3]) | Nutsedge plant response rating (purple nutsedge; [4]) | Nutsedge plant response rating (purple nutsedge; [8]) | Plant response rating, Nutsedge (purple nutsedge; [5]) | Nutsedge plant response rating (purple nutsedge; [6]) | Redroot pigweed plant response rating (pigweed; [7]) | Redroot pigweed plant response rating (pigweed; [1]) | Redroot pigweed plant response rating (0 to 10 scale) (pigweed; [2]) | Redroot pigweed plant response rating (pigweed; [3]) | Redroot pigweed plant response rating (pigweed; [4]) | Redroot pigweed plant response rating (pigweed; [8]) | Plant response rating, Redroot pigweed (pigweed; [5]) | Redroot pigweed plant response rating (pigweed; [6]) | Rice plant response rating (rice; [9]) | Rice plant response rating (rice; [10]) | Plant response rating, Rice (rice; [11]) | Rice plant response rating (rice; [12]) | Morningglory plant response rating (morningglory; [1]) | Morningglory plant response rating (0 to 10 scale) (morningglory; [2]) | Morningglory plant response rating (morningglory; [3]) | Morningglory plant response rating (morningglory; [4]) | Morningglory plant response rating (morningglory; [8]) | Giant foxtail plant response rating (giant foxtail; [7]) | Giant foxtail plant response rating (giant foxtail; [1]) | Giant foxtail plant response rating (0 to 10 scale) (giant foxtail; [2]) | Giant foxtail plant response rating (giant foxtail; [3]) | Giant foxtail plant response rating (giant foxtail; [4]) | Giant foxtail plant response rating (giant foxtail; [8]) | Plant response rating, Giant foxtail (giant foxtail; [5]) | Giant foxtail plant response rating (giant foxtail; [6]) | S. Flatsedge plant response rating (smallflower flatsedge; [9]) | S. Flatsedge plant response rating (smallflower flatsedge; [10]) | Plant response rating, S. Flatsedge (smallflower flatsedge; [11]) | S. Flatsedge plant response rating (smallflower flatsedge; [12]) | Blackgrass plant response rating (blackgrass; [7]) | Blackgrass plant response rating (blackgrass; [1]) | Blackgrass plant response rating (0 to 10 scale) (blackgrass; [2]) | Blackgrass plant response rating (blackgrass; [3]) | Blackgrass plant response rating (blackgrass; [4]) | Blackgrass plant response rating (blackgrass; [8]) | Plant response rating, Blackgrass (blackgrass; [5]) | Blackgrass plant response rating (blackgrass; [6]) | Soybean plant response rating (soybean; [1]) | Soybean plant response rating (0 to 10 scale) (soybean; [2]) | Soybean plant response rating (soybean; [3]) | Soybean plant response rating (soybean; [4]) | Soybean plant response rating (soybean; [8]) | Rape plant response rating (rape; [7]) | Rape plant response rating (rape; [1]) | Rape plant response rating (0 to 10 scale) (rape; [2]) | Rape plant response rating (rape; [3]) | Rape plant response rating (rape; [4]) | Rape plant response rating (rape; [8]) | Plant response rating, Rape (rape; [5]) | Rape plant response rating (rape; [6]) | Ducksalad plant response rating (duck salad; [9]) | Ducksalad plant response rating (duck salad; [10]) | Plant response rating, Ducksalad (duck salad; [11]) | Ducksalad plant response rating (duck salad; [12]) | Crabgrass plant response rating (crabgrass; [7]) | Crabgrass plant response rating (crabgrass; [1]) | Crabgrass plant response rating (0 to 10 scale) (crabgrass; [2]) | Crabgrass plant response rating (crabgrass; [3]) | Crabgrass plant response rating (crabgrass; [4]) | Crabgrass plant response rating (crabgrass; [8]) | Plant response rating, Crabgrass (crabgrass; [5]) | Crabgrass plant response rating (crabgrass; [6]) | Wheat plant response rating (wheat; [1]) | Wheat plant response rating (0 to 10 scale) (wheat; [2]) | Wheat plant response rating (wheat; [3]) | Wheat plant response rating (wheat; [4]) | Plant response rating, Wheat (wheat; [5]) | Wheat plant response rating (wheat; [6]) | Corn plant response rating (corn; [7]) | Corn plant response rating (corn; [1]) | Corn plant response rating (0 to 10 scale) (corn; [2]) | Corn plant response rating (corn; [3]) | Corn plant response rating (corn; [4]) | Corn plant response rating (corn; [8]) | Plant response rating, Corn (corn; [5]) | Corn plant response rating (corn; [6]) | Cocklebur plant response rating (cocklebur; [7]) | Cocklebur plant response rating (cocklebur; [1]) | Cocklebur plant response rating (0 to 10 scale) (cocklebur; [2]) | Cocklebur plant response rating (cocklebur; [3]) | Cocklebur plant response rating (cocklebur; [4]) | Cocklebur plant response rating (cocklebur; [8]) | Plant response rating, Cocklebur (cocklebur; [5]) | Cocklebur plant response rating (cocklebur; [6]) | Sugarbeets plant response rating (sugar beet; [7]) | Sugarbeets plant response rating (sugar beet; [1]) | Sugarbeets plant response rating (0 to 10 scale) (sugar beet; [2]) | Sugarbeets plant response rating (sugar beet; [3]) | Sugarbeets plant response rating (sugar beet; [4]) | Sugarbeets plant response rating (sugar beet; [8]) | Plant response rating, Sugarbeets (sugar beet; [5]) | Sugarbeets plant response rating (sugar beet; [6])
2: Morningglory plant response rating (morningglory; [7])

Reference: patent US6737383B1, “Herbicidal oxadiazolidines” (priority 1999, dated 2004)
